Eleven compounds from US20260193264A1, “BENZOYPARAZINE PYRAZINES AND THEIR USES” (FOGHORN THERAPEUTICS INC., priority 2022, published 2026) can be followed below.

The target in assay [1] is T1, HiBiT-BRM fusion protein in stable HeLa cell line (Homo sapiens, UniProt P51531).
T1 construct: expressed in transfected cells
Nature of the assay: HiBiT-BRM cell-based degradation assay (Nano-Glo HiBiT Lytic Detection, 24 h). Also noted: DC50: scale not given here. The note with it: HeLa HiBiT-BRM cells; for DC50: read-out: BRM HiBit Degradation IC50; for BRM HiBit Degradation Maximum (%): top dose 30 μM. Summed up:
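Percent degradation was scaled between DMSO-treated cells and cells given 2 μM of a known BRM/BRG1 degrader. Readout was NanoBiT luminescence after lytic detection. HeLa cells stably expressing HiBiT-BRM were dosed for 24 h, 10 points, 3-fold steps from 30 μM final, in duplicate.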
(In general: With HiBiT, luminescence reflects the tagged protein that the partner subunit can reach.)

The target of assay [2] is T2, HiBit-BRG1 fusion protein in stable HeLa cell line expressing HiBit-BRG1 and LgBit (Homo sapiens, UniProt P51532).
T2 construct: expressed in transfected cells
T2 sequence (P51532 whole entry, the tested form may be a part): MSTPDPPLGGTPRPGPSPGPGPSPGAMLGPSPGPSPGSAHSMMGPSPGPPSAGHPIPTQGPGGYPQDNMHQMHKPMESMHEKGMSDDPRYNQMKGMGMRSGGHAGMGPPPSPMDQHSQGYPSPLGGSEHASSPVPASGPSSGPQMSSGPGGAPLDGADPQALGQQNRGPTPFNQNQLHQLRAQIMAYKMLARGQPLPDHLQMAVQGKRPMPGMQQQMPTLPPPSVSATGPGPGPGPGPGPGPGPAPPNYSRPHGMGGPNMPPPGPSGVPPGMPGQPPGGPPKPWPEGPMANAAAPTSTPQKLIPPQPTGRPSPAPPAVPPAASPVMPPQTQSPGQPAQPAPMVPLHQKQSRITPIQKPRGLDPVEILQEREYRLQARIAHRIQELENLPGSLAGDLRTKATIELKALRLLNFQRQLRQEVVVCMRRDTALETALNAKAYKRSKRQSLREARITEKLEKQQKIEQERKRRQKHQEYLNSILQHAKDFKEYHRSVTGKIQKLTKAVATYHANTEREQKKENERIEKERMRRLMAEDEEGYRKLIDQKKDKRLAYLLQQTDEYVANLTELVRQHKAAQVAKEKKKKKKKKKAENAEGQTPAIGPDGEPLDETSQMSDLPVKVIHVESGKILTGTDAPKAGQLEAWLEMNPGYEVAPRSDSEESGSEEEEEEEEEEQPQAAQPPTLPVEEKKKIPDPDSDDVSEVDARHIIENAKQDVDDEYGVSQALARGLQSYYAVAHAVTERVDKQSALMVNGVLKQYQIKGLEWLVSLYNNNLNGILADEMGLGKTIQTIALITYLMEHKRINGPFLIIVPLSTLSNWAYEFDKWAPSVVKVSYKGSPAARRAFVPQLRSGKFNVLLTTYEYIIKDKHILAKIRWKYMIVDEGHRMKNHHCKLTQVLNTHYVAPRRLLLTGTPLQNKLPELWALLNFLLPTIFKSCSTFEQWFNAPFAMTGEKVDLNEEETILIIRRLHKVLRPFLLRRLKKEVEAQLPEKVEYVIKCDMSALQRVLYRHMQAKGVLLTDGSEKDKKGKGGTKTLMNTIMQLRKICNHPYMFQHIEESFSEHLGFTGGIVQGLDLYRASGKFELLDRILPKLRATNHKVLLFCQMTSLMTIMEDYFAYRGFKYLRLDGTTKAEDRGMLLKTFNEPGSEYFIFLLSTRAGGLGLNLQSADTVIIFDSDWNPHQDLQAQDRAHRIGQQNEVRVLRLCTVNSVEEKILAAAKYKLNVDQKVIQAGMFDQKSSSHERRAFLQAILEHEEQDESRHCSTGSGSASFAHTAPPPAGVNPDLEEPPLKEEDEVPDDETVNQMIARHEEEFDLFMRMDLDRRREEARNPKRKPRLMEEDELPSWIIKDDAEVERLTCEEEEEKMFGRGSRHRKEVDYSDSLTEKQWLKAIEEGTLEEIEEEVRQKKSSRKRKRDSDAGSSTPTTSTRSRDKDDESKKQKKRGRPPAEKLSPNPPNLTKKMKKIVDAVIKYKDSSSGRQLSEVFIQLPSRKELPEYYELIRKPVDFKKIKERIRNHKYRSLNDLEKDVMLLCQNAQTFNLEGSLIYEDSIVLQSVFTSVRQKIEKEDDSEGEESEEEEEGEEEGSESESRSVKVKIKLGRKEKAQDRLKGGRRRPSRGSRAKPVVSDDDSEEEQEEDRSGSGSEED
The assay can be described thus: HiBiT-BRG1 cell-based degradation assay (Nano-Glo HiBiT, 24 h). The conditions noted are these: HeLa HiBit-BRG1/LgBit cells; for DC50: read-out: BRMG1 HiBit Degradation IC50; for Dmax: top dose 30 μM, read-out: BRG1 HiBit Degradation Maximum (%). Summed up: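 Degradation calculated from NanoBiT luminescence relative to DMSO-treated cells (high) and cells given 2 μM known BRM/BRG1 degrader (low). HeLa cells stably expressing HiBiT-BRG1 plus LgBiT were exposed to compound for 24 h before lytic HiBiT detection.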

T1 sequence (P51531 whole entry, the tested form may be a part): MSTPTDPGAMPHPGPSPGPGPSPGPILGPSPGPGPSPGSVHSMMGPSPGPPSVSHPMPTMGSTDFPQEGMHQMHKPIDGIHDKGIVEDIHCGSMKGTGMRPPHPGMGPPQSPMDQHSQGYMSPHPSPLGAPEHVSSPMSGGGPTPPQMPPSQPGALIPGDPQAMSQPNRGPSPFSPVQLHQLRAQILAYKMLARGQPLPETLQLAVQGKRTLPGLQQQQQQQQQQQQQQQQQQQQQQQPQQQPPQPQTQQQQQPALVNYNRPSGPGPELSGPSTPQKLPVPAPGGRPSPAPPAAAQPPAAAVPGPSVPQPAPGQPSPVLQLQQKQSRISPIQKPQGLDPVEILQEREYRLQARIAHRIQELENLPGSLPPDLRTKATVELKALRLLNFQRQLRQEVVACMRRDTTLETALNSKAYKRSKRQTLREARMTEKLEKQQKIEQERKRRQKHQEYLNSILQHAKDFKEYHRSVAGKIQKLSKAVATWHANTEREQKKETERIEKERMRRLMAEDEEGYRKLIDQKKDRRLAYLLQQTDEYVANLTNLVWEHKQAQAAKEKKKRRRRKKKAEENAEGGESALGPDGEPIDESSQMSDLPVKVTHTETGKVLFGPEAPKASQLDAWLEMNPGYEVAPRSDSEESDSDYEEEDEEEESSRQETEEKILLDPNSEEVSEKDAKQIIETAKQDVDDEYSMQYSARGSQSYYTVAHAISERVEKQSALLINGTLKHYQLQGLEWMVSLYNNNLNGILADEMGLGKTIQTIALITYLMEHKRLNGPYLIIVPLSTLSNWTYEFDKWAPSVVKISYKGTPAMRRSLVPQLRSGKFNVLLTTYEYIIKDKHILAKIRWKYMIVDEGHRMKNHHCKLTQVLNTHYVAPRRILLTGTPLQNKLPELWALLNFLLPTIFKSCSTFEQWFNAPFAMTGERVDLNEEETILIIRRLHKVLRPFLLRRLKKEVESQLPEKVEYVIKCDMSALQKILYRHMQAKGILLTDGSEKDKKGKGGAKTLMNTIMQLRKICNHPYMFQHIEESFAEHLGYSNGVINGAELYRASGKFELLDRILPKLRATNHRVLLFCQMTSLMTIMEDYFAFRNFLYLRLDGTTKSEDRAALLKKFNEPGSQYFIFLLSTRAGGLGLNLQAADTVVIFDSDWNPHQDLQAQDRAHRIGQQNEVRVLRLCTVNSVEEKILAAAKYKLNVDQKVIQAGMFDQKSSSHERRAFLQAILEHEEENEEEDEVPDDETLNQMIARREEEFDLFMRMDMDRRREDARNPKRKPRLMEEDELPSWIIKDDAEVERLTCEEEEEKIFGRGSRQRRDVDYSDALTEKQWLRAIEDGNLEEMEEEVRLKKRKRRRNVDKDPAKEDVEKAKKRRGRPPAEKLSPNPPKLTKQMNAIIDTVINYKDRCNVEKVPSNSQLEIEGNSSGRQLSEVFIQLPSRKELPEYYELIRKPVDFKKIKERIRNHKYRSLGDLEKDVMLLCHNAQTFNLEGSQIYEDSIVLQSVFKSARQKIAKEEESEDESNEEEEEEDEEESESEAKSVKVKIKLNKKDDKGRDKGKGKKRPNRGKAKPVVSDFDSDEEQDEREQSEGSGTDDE

On to `Cc1ncsc1-c1ccc([C@H](C)NC(=O)[C@@H]2C[C@@H](O)CN2C(=O)[C@@H](c2cc(N3CC4(CC(Oc5ccc6cc(-c7ccccc7O)nnc6c5)C4)C3)no2)C(C)C)cc1` [Compound 84, (2S,4R)-4-hydroxy-1-((R)-2-(3-(6-((3-(2-hydroxyphenyl)cinnolin-7-yl)oxy)-2-azaspiro[3.3]heptan-2-yl)isoxazol-5-yl)-3-methylbutanoyl)-N-((S)-1-(4-(4-methylthiazol-5-yl)phenyl)ethyl)pyrrolidine-2-carboxamide], for which, in assay [1], the DC50 is < 10 nM and the “BRM HiBit Degradation Maximum (%)” value is listed as “A (“A” indicates maximum degradation ≥75%)”. For the same compound, in assay [2], the DC50 was > 10 nM and the Dmax was > 50%.
As to `Cc1ncsc1-c1ccc([C@H](C)NC(=O)[C@@H]2C[C@@H](O)CN2C(=O)[C@@H](c2cc(N3CC4(CN(c5cc(Cl)c6cc(-c7ccccc7O)nnc6c5)C4)C3)no2)C(C)C)cc1` [Compound 163, (2S,4R)-1-((R)-2-(3-(6-(5-chloro-3-(2-hydroxyphenyl)cinnolin-7-yl)-2,6-diazaspiro[3.3]heptan-2-yl)isoxazol-5-yl)-3-methylbutanoyl)-4-hydroxy-N-((S)-1-(4-(4-methylthiazol-5-yl)phenyl)ethyl)pyrrolidine-2-carboxamide], in assay [1], the DC50 is < 10 nM and the “BRM HiBit Degradation Maximum (%)” value is listed as “A (“A” indicates maximum degradation ≥75%)”. Moreover, the Dmax in assay [2] is < 50%.
`Cc1ncsc1-c1ccc([C@H](C)NC(=O)[C@@H]2C[C@@H](O)CN2C(=O)[C@@H](c2cc(N3CCN([C@@H]4CCN(c5ccc6nnc(-c7ccccc7O)cc6c5)CC4(F)F)CC3)no2)C(C)C)cc1` [Compound 124, (2S,4R)-1-((R)-2-(3-(4-((R)-3,3-difluoro-1-(3-(2-hydroxyphenyl)cinnolin-6-yl)piperidin-4-yl)piperazin-1-yl)isoxazol-5-yl)-3-methylbutanoyl)-4-hydroxy-N-((S)-1-(4-(4-methylthiazol-5-yl)phenyl)ethyl)pyrrolidine-2-carboxamide]: in assay [1], the DC50 was < 10 nM and the “BRM HiBit Degradation Maximum (%)” value is “A (“A” indicates maximum degradation ≥75%)”. For the same compound, in assay [2], the DC50 was < 10 nM and the Dmax was > 75%.
Regarding `Cc1ncsc1-c1ccc([C@H](C)NC(=O)[C@@H]2C[C@@H](O)CN2C(=O)C(C(C)C)n2cc(N3CCC(CN4CCN(c5ccc6cc(-c7ccccc7O)nnc6c5)CC4)CC3)nn2)cc1` (stereo partly drawn) [Compound 259, (2S,4R)-4-hydroxy-1-(2-(4-(4-((4-(3-(2-hydroxyphenyl)cinnolin-7-yl)piperazin-1-yl)methyl)piperidin-1-yl)-1H-1,2,3-triazol-1-yl)-3-methylbutanoyl)-N-((S)-1-(4-(4-methylthiazol-5-yl)phenyl)ethyl)pyrrolidine-2-carboxamide], in assay [1], the DC50 was < 10 nM and the “BRM HiBit Degradation Maximum (%)” value is listed as “A (“A” indicates maximum degradation ≥75%)”. Besides, in assay [2], the DC50 was > 10 nM and the Dmax was > 75%.
As for `Cc1ncsc1-c1ccc([C@H](C)NC(=O)[C@@H]2C[C@@H](O)CN2C(=O)[C@H](c2cc(-c3cnc(N4CC(c5cc6cc(-c7ccccc7O)nnc6cc5Cl)C4)nc3)no2)C(C)C)cc1` [Compound 29], in assay [1], the DC50 is > 100 nM and the “BRM HiBit Degradation Maximum (%)” value is listed as “A (“A” indicates maximum degradation ≥75%)”. In addition, the Dmax in assay [2] is < 50%.
As for `Cc1ncsc1-c1ccc([C@H](C)NC(=O)[C@@H]2C[C@@H](O)CN2C(=O)[C@@H](c2cc(N3CC4(C3)CN(c3cc5nnc(-c6ccccc6O)cc5cc3C3CC3)C4)no2)C(C)C)cc1` [Compound 126, (2S,4R)-1-((R)-2-(3-(6-(6-cyclopropyl-3-(2-hydroxyphenyl)cinnolin-7-yl)-2,6-diazaspiro[3.3]heptan-2-yl)isoxazol-5-yl)-3-methylbutanoyl)-4-hydroxy-N-((S)-1-(4-(4-methylthiazol-5-yl)phenyl)ethyl)pyrrolidine-2-carboxamide], in assay [1], the DC50 was < 10 nM and the “BRM HiBit Degradation Maximum (%)” value is recorded as “A (“A” indicates maximum degradation ≥75%)”. Besides, in assay [2], the DC50 is < 10 nM and the Dmax is > 75%.
On to `Cc1ncsc1-c1ccc([C@H](C)NC(=O)[C@@H]2C[C@@H](O)CN2C(=O)[C@H](C(C)C)n2cc(C3CC4(CC(c5ccc6cc(-c7ccccc7O)nnc6c5)C4)C3)nn2)cc1` (stereo partly drawn) [Compound 208, (2S,4R)-4-hydroxy-1-[(2S)-2-(4-{6-[3-(2-hydroxyphenyl)cinnolin-7-yl]spiro[3.3]heptan-2-yl}-1,2,3-triazol-1-yl)-3-methylbutanoyl]-N-[(1S)-1-[4-(4-methyl-1,3-thiazol-5-yl)phenyl]ethyl]pyrrolidine-2-carboxamide], for which, in assay [1], the DC50 was < 10 nM and the “BRM HiBit Degradation Maximum (%)” value was “A (“A” indicates maximum degradation ≥75%)”. For the same compound, in assay [2], the DC50 is > 10 nM and the Dmax was > 75%.
Take `Cc1ncsc1-c1ccc([C@H](C)NC(=O)[C@@H]2C[C@@H](O)CN2C(=O)[C@@H](c2ccnc(N3CC4(CN(c5ccc6nnc(-c7ccccc7O)cc6c5)C4)C3)c2)C(C)C)cc1` [Compound 160, (2S,4R)-4-hydroxy-1-[(2R)-2-(2-{6-[3-(2-hydroxyphenyl)cinnolin-6-yl]-2,6-diazaspiro[3.3]heptan-2-yl}pyridin-4-yl)-3-methylbutanoyl]-N-[(1S)-1-[4-(4-methyl-1,3-thiazol-5-yl)phenyl]ethyl]pyrrolidine-2-carboxamide]: in assay [1], the “BRM HiBit Degradation Maximum (%)” value was “B (“B” indicates maximum degradation ≥50%)”. In assay [2], the Dmax is < 50%.
In the case of `CNC(=O)[C@@H]1C[C@@H](O)CN1C(=O)[C@@H](c1cc(N2CC3(C2)CN(c2cc4nnc(-c5ccccc5O)cc4cc2OC)C3)no1)C(C)C` [Compound 209, (2S,4R)-4-hydroxy-1-((R)-2-(3-(6-(3-(2-hydroxyphenyl)-6-methoxycinnolin-7-yl)-2,6-diazaspiro[3.3]heptan-2-yl)isoxazol-5-yl)-3-methylbutanoyl)-N-methylpyrrolidine-2-carboxamide], in assay [1], the DC50 was < 10 nM and the “BRM HiBit Degradation Maximum (%)” value was “A (“A” indicates maximum degradation ≥75%)”. Moreover, the Dmax in assay [2] was < 50%.
For `Cc1ncsc1-c1ccc([C@H](C)NC(=O)[C@@H]2C[C@@H](O)CN2C(=O)C(C(C)C)n2cc(N3CCN(CN4CCN(c5ccc6nnc(-c7ccccc7O)cc6c5)CC4)CC3)nn2)cc1` (some centres unmarked) [Compound 282], in assay [1], the DC50 was < 10 nM and the “BRM HiBit Degradation Maximum (%)” value is recorded as “A (“A” indicates maximum degradation ≥75%)”. Besides, in assay [2], the DC50 was < 10 nM and the Dmax was > 75%.
As for `Cc1ncsc1-c1ccc([C@H](C)NC(=O)[C@@H]2C[C@@H](O)CN2C(=O)[C@H](C2CCC2)n2cc(N3CC4(CN(c5ccc6cc(-c7ccccc7O)nnc6c5)C4)C3)nn2)cc1` [Compound 211, (2S,4R)-1-((S)-2-cyclobutyl-2-(4-(6-(3-(2-hydroxyphenyl)cinnolin-7-yl)-2,6-diazaspiro[3.3]heptan-2-yl)-1H-1,2,3-triazol-1-yl)acetyl)-4-hydroxy-N-((S)-1-(4-(4-methylthiazol-5-yl)phenyl)ethyl)pyrrolidine-2-carboxamide], in assay [1], the DC50 is < 10 nM and the “BRM HiBit Degradation Maximum (%)” value is listed as “A (“A” indicates maximum degradation ≥75%)”. Further, the Dmax in assay [2] is < 50%.
